Ten molecules from ChEMBL document CHEMBL1201862, “PubChem BioAssay data set” (2004) can be followed below.

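Tested at 5 concentrations; 48 h exposure; 96-well plates; endpoints linearly interpolated, else capped at highest concentration. GI50 marks 50% less growth.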 Activity calls are given as the source filed them. Rule as the data show it: active = GI50 up to about 1.1 µM and inactive = higher.

Test systems include SF-268; T47D; HCT-116; UACC-257; NCI-H460; OVCAR-5; MDA-N; OVCAR-4; Hs-578T; K562; HCC 2998; MOLT-4; OVCAR-8; RPMI-8226; SN12C; UACC-62; IGROV-1; COLO 205; KM12; 786-0.
Holding throughout (assay): NCI anticancer screen, dose series, 48 h

With `Cc1ccccc1NC(=S)N/N=C1\C(=O)Nc2ccccc21`, the GI50 in the test with SF-268 was 15.1 µM (inactive); with T47D it was > 100 µM (inactive); in the test with HCT-116 it was > 100 µM (inactive); in the test with UACC-257, > 100 µM (inactive); with NCI-H460 it was > 100 µM (inactive); in the test with OVCAR-5 it was > 100 µM (inactive). Moreover, the GI50 in the test on MDA-N, in the test on OVCAR-4, with Hs-578T, in the test with K562, in the test on HCC 2998 and in the test with MOLT-4 was > 100 µM (inactive) throughout. The GI50 with OVCAR-8, with RPMI-8226, in the test on SN12C, in the test on UACC-62, in the test with IGROV-1 and with COLO 205 was > 100 µM (inactive) each time. In addition, the GI50 with KM12 and in the test with 786-0 was > 100 µM (inactive) throughout.

For the molecule `O=C1c2cscc2C(=O)c2c(OCc3ccccc3)ccc(OCc3ccccc3)c21`, the GI50 in the test on SF-268 was > 100 µM (inactive); with T47D, > 100 µM (inactive); in the test on HCT-116, 91.6 µM (inactive); with UACC-257 it was > 100 µM (inactive); with NCI-H460, > 100 µM (inactive); with OVCAR-5, > 100 µM (inactive). Also, the GI50 with MDA-N was > 100 µM (inactive); in the test on OVCAR-4, > 100 µM (inactive); in the test with Hs-578T, > 100 µM (inactive); in the test with K562, 61.1 µM (inactive); in the test with HCC 2998, 53.1 µM (inactive); in the test on MOLT-4 it was > 100 µM (inactive). Further, the GI50 in the test on OVCAR-8 was > 100 µM (inactive); in the test on RPMI-8226 it was > 100 µM (inactive); in the test with SN12C, > 100 µM (inactive); in the test with UACC-62, > 100 µM (inactive); in the test with IGROV-1, 83.2 µM (inactive); in the test with COLO 205, > 100 µM (inactive). Further, the GI50 is > 100 µM (inactive) in the test on KM12 and 58.2 µM (inactive) with 786-0.

For the molecule `O=C(NNCc1ccco1)c1cc2ccccc2[nH]1`, the GI50 with SF-268 is 38.8 µM (inactive); with T47D, 13.5 µM (inactive); with HCT-116 it was > 86.1 µM (inactive); with UACC-257, > 62.5 µM (inactive); with NCI-H460, > 71.4 µM (inactive); with OVCAR-5, > 100 µM (inactive). Besides, the GI50 with MDA-N was > 100 µM (inactive); with OVCAR-4 it was > 39.1 µM (inactive); in the test on Hs-578T, 14.9 µM (inactive); with K562 it was > 100 µM (inactive); with HCC 2998, > 36.9 µM (inactive); with MOLT-4 it was > 100 µM (inactive). Moreover, the GI50 in the test with OVCAR-8 was > 53.1 µM (inactive); in the test with RPMI-8226 it was > 100 µM (inactive); in the test with SN12C, > 61 µM (inactive); with UACC-62, > 100 µM (inactive); in the test on IGROV-1, 50.7 µM (inactive); in the test on COLO 205, > 100 µM (inactive). Besides, the GI50 in the test on KM12 is 65.8 µM (inactive); with 786-0, > 51.5 µM (inactive).

`CC1(C)[C@@H]2CC[C@@]1(C)[C@H](O)[C@@H]2SCc1ccccc1`: the GI50 in the test on SF-268 was 17.3 µM (inactive); in the test on T47D, 24 µM (inactive); in the test with HCT-116, 17.2 µM (inactive); in the test on UACC-257, 14 µM (inactive); in the test with NCI-H460 it was 19.2 µM (inactive); in the test with OVCAR-5, 17 µM (inactive). Also, the GI50 in the test on MDA-N was 18.9 µM (inactive); with OVCAR-4 it was 12.9 µM (inactive); in the test on Hs-578T it was 14.2 µM (inactive); in the test on K562 it was 25.2 µM (inactive); in the test on HCC 2998 it was 19.5 µM (inactive); in the test with MOLT-4, 16.5 µM (inactive). In addition, the GI50 is 19.1 µM (inactive) with OVCAR-8; 27.5 µM (inactive) in the test on RPMI-8226; 17.8 µM (inactive) in the test on SN12C; 10.2 µM (inactive) in the test on UACC-62; 18.7 µM (inactive) with IGROV-1; 17.8 µM (inactive) in the test with COLO 205. Moreover, the GI50 in the test on KM12 was 17.8 µM (inactive); in the test with 786-0 it was 17 µM (inactive).

As to `O=C1c2[nH]c3ccccc3c2CCN2CCCCC12` (stereo not given), the GI50 with SF-268 is 33.8 µM (inactive); in the test with T47D, 25.7 µM (inactive); in the test on HCT-116, 23.6 µM (inactive); with UACC-257, 17.7 µM (inactive); in the test on NCI-H460 it was 26.6 µM (inactive); with OVCAR-5 it was 21.6 µM (inactive). Also, the GI50 with MDA-N is 19.1 µM (inactive); in the test on OVCAR-4 it was 27.5 µM (inactive); in the test on Hs-578T it was 28 µM (inactive); in the test on K562, 23.2 µM (inactive); with HCC 2998 it was 17.2 µM (inactive); in the test with MOLT-4, 17.3 µM (inactive). Further, the GI50 was 25.2 µM (inactive) in the test with OVCAR-8; 17.7 µM (inactive) in the test on RPMI-8226; 35.6 µM (inactive) in the test with SN12C; 18.8 µM (inactive) in the test on UACC-62; 20.2 µM (inactive) in the test on IGROV-1; 18.7 µM (inactive) in the test on COLO 205. Further, the GI50 with KM12 was 17.7 µM (inactive); with 786-0, 24 µM (inactive).

As for `CC(C)OP(=O)(OC(C)C)/C(C#N)=C/c1ccco1`, the GI50 in the test on SF-268, in the test on T47D, in the test on HCT-116, in the test with UACC-257, in the test with NCI-H460 and in the test on OVCAR-5 was > 100 µM (inactive) in each case. In addition, the GI50 in the test with MDA-N, in the test with OVCAR-4, with Hs-578T, with K562, in the test on HCC 2998 and with MOLT-4 was > 100 µM (inactive) each time. For the same molecule, the GI50 with OVCAR-8, with RPMI-8226, with SN12C, in the test on UACC-62, in the test with IGROV-1 and in the test with COLO 205 was > 100 µM (inactive) in each case. The GI50 in the test on KM12 and with 786-0 was > 100 µM (inactive) throughout.

In the case of `O=[N+]([O-])c1ccc(Cl)c(/C=N/C23CC4CC(CC(C4)C2)C3)c1`, the GI50 is > 10 µM (inactive) with SF-268; > 10 µM (inactive) in the test on T47D; 1.2 µM (inactive) with HCT-116; > 10 µM (inactive) with UACC-257; > 10 µM (inactive) in the test on NCI-H460; > 10 µM (inactive) with OVCAR-5. Moreover, the GI50 was > 8.13 µM (inactive) in the test with MDA-N; > 10 µM (inactive) with OVCAR-4; > 10 µM (inactive) with Hs-578T; 2.89 µM (inactive) with K562; > 10 µM (inactive) in the test on HCC 2998; 5.18 µM (inactive) with MOLT-4. Besides, the GI50 in the test with OVCAR-8 is 4 µM (inactive); in the test with RPMI-8226, > 6.93 µM (inactive); in the test with SN12C, > 10 µM (inactive); in the test with UACC-62 it was > 10 µM (inactive); with IGROV-1, > 10 µM (inactive); with COLO 205, > 10 µM (inactive). Besides, the GI50 is > 9.48 µM (inactive) in the test on KM12 and > 7.66 µM (inactive) with 786-0.

Take `N#CC1C=Cc2ccccc2N1C(=O)Oc1ccccc1` (stereo not given): the GI50 is 55.1 µM (inactive) with SF-268; 28.2 µM (inactive) in the test with T47D; 38.7 µM (inactive) in the test with HCT-116; 76.9 µM (inactive) in the test on UACC-257; 41.4 µM (inactive) with NCI-H460; > 100 µM (inactive) with OVCAR-5. Besides, the GI50 was 35.4 µM (inactive) with MDA-N; 40.6 µM (inactive) in the test on OVCAR-4; 60 µM (inactive) in the test on Hs-578T; 32.3 µM (inactive) in the test on K562; 40.1 µM (inactive) in the test with HCC 2998; 28.2 µM (inactive) in the test on MOLT-4. Further, the GI50 was 48.8 µM (inactive) with OVCAR-8; 21.3 µM (inactive) in the test with RPMI-8226; 45.9 µM (inactive) with SN12C; 52.7 µM (inactive) in the test on UACC-62; 68.2 µM (inactive) with IGROV-1; 58.7 µM (inactive) with COLO 205. For the same molecule, the GI50 in the test with KM12 was 37.2 µM (inactive); in the test with 786-0, 56.5 µM (inactive).

Take `COc1cc2cc(C(=O)N3CC(CCl)c4c3cc(NC(=O)C(C)(C)c3ccccc3[N+](=O)[O-])c3ccccc43)[nH]c2c(OC)c1OC` (stereo not given): the GI50 was 1.88 µM (inactive) in the test on SF-268; 4.73 µM (inactive) in the test with T47D; 0.393 µM (active) in the test on HCT-116; 6.65 µM (inactive) in the test on UACC-257; 0.158 µM (active) in the test with NCI-H460; 2.77 µM (inactive) in the test with OVCAR-5. Besides, the GI50 in the test on MDA-N was 5.12 µM (inactive); in the test with OVCAR-4 it was 3.08 µM (inactive); in the test on Hs-578T, 9.33 µM (inactive); in the test on K562, 0.991 µM (active); in the test with HCC 2998, 6.15 µM (inactive); with MOLT-4, 1.71 µM (inactive). Moreover, the GI50 in the test with OVCAR-8 is 0.951 µM (active); with RPMI-8226, 173 µM (inactive); in the test with SN12C it was 4.23 µM (inactive); in the test on UACC-62 it was 3.32 µM (inactive); in the test with IGROV-1 it was 1.35 µM (inactive); in the test with COLO 205, 5.43 µM (inactive). Besides, the GI50 in the test on KM12 is 1.86 µM (inactive); in the test on 786-0, 1.36 µM (inactive).

For `COc1cc(C(=O)OC2CC34CCNC35CC(OC5(OC)C2O)c2cc3c(cc24)OCO3)ccc1O` (stereo not given), the GI50 in the test with SF-268, with T47D, in the test on HCT-116, with UACC-257, with NCI-H460 and with OVCAR-5 was > 100 µM (inactive) throughout. In addition, the GI50 in the test on MDA-N, in the test on OVCAR-4, in the test with Hs-578T, with K562, in the test with HCC 2998 and with MOLT-4 was > 100 µM (inactive) throughout. The GI50 with OVCAR-8, in the test on RPMI-8226, in the test on SN12C, in the test with UACC-62, in the test with IGROV-1 and in the test with COLO 205 was > 100 µM (inactive) each time. Also, the GI50 with KM12 and in the test with 786-0 was > 100 µM (inactive) each time.
